Test results from patent US20200079860A1, “METHODS AND COMPOSITIONS FOR TUMOR THERAPY” (MEMORIAL SLOAN KETTERING CANCER CENTER, priority 2015, published 2020).

Test system: B16F10 cells
Assay: mouse bilateral tumor model (B16 murine melanoma); one tumor injected, contralateral non-injected
Assay type: in vivo, C57BL/6 mice
Procedure: By injecting only one of two tumors throughout the course of the experiment it is possible to separate the effect of the injected tumor from the “abscopal” effect on the distant non-injected tumor. Once treatment begins, tumors are measured twice weekly for at least 90 days.
Also, unless indicated otherwise, controls were treated with isotype control antibodies and vehicle only. Furthermore, unless indicated otherwise, all experiments were performed using the mouse bilateral tumor model described below and summarized in FIG. 2.
The animals used had large tumors in two opposite flanks. One tumor was injected while the second remained non-injected (FIG. 2), allowing separate analysis of the effect at the injected tumor from the so-called ‘abscopal’ effect at the non-injected tumor, in order to understand how this treatment could benefit patients with metastatic cancer. […] C57BL/6 mice were initially implanted with 5×10^5 syngeneic B16F10 cells intra-dermally in bilateral flanks. 8 days post tumor cell implantation, when bilateral tumors measured ˜0.5 cm, intratumoral (IT) treatment with various test agents was initiated together with intraperitoneal (IP) anti-PD-1 mAb. […]
8 days post tumor cell implantation, when bilateral tumors measured ˜0.5 cm, intratumoral (IT) treatment with agents selected to activate APCs was initiated together with intraperitoneal (IP) anti-PD-1 mAb. […]

Compound | substitution for MPL in the treatment (FIG. 35B) | survival on concurrent addition of systemic chemotherapy (added IP to intratumoral MPL, anti-IL10R, and anti-CD40)
PolyIC | can be substituted for MPL, albeit possibly with slightly reduced activity | 
O=C1[O][Pt]2([NH][C@@H]3CCCC[C@H]3[NH]2)[O]C1=O [oxaliplatin] |  | increased survival
